molecular target: T1, DDAH (Rattus norvegicus, UniProt O08557); experiment: DDAH activity assay (rat kidney lysate, [14C]L-NMMA to [14C]citrulline); format: biochemical; settings: 100 μM compound
T1 construct: Rat kidney was homogenized in PBS; from tissue; host or cells: rat kidney homogenate, high-speed supernatant
Protocol: Rat kidney was homogenized in PBS containing PMSF 1 mM, leupeptin 5 μg/ml, pepstatin 5 μg/ml, chymostatin 5 μg/ml, and the lysate was centrifuged (4000 rpm. 20 min then supernatant further centrifuged for 40000 rpm, 30 min, 4° C.). The supernatants were analyzed for DDAH activity; [^14[…]) was added to the cell lysates (final volume 100 μl) and incubated for 1 h at 37° C. Dowex resin (0.5 ml) at neutral pH was immediately added to samples to terminate the reaction and bind unmetabolized L-NMMA. [^14C]Citrulline formation was determined by scintillation counting (Hewlett Packard).

T1 sequence (O08557 2-285 limits assumed): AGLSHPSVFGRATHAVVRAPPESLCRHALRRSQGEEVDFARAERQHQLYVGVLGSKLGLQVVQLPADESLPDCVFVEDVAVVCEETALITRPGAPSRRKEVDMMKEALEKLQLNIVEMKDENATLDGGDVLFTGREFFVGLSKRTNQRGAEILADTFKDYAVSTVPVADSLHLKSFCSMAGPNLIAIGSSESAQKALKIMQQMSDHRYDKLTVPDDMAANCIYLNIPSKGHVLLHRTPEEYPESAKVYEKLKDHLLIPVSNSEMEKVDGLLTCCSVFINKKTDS

inhibition at 100 µM [%]	Structure (SMILES)	Inhibition at 100 μM (%)
47.4	COCCN=C(N)NCC[C@H](N)C(=O)OCc1ccccc1OC [Example 33, 2-Methoxybenzyl (S)-2-amino-4-[(N′-(2-methoxyethyl))guanidino]butanoate]	–
33.2	COCCN=C(N)NCC[C@H](N)C(=O)OCc1cccc(F)c1 [Example 40, 3-Fluorobenzyl (S)-2-amino-4-[(N′-(2-methoxyethyl))guanidino]butanoate]	–
22.1	COCCN=C(N)NCC[C@H](N)C(=O)OCc1ccc(OC)cc1 [Example 34, 4-Methoxybenzyl (S)-2-amino-4-[(N′-(2-methoxyethyl))guanidino]butanoate]	–
48.7	COCCN=C(N)NCC[C@H](N)C(=O)OCc1cccc(C)c1 [Example 38, 3-Methylbenzyl (S)-2-amino-4-[(N′-(2-methoxyethyl))guanidino]butanoate]	–
59	COCCN=C(N)NCC[C@H](N)C(=O)OCCOC [Example 41, 2-Methoxyethyl (S)-2-amino-4-[(N′-(2-methoxyethyl))guanidino]butanoate]	–

Second part, the compound before the results:

Structure (SMILES)	inhibition at 100 µM [%]	Inhibition at 100 μM (%)
COCCN=C(N)NCC[C@H](N)C(=O)OCc1cccc(Oc2ccccc2)c1 [Example 37, 3-Phenoxybenzyl (S)-2-amino-4-[(N′-(2-methoxyethyl))guanidino]butanoate]	42.7	–
COCCN=C(N)NCC[C@H](N)C(=O)OCc1cccc(C(F)(F)F)c1 [Example 39, 3-Trifluoromethylbenzyl (S)-2-amino-4-[(N′-(2-methoxyethyl))guanidino]butanoate]	45.3	–
COCCN=C(N)NCC[C@H](N)C(=O)OCc1ccc(F)c(C(F)(F)F)c1 [Example 36, 3-Trifluoromethyl-4-fluorobenzyl (S)-2-amino-4-[(N′-(2-methoxyethyl))guanidino]butanoate]	50.6	–
COCCN=C(N)NCC[C@H](N)C(=O)OCc1ccccc1F [Example 35, 2-Fluorobenzyl (S)-2-amino-4-[(N′-(2-methoxyethyl))guanidino]butanoate]	39.8	–
N=C(NCC[C@H](N)C(=O)O)NCC1CCCO1 (stereo partly drawn) [Example 32, (2S)-2-Amino-4-N^G-((tetrahydrofuran-2-yl)methyl)guanidinobutanoic acid]	–	10
N=C(NCCC[C@H](N)C(=O)O)NCC1CCCO1 (stereo partly drawn) [Example 31, (S)—N^G-((Tetrahydrofuran-2-yl)methyl)-arginine]	–	30

same assay, conditions: 1 mM compound, [14C]L-NMMA 1 μmol/L, 1 h 37° C.

Inhibition at 1 mM, % [%]	inhibition at 1000 µM [%]	Structure (SMILES)
–	40	CCCCOC(=O)[C@@H](N)CCNC(N)=NCCOC [Example 25, (S)-2-Amino-4-(N′-(2-methoxyethyl)guanidino)butanoic acid butyl ester]
–	60	N=C(NCC[C@H](N)C(=O)O)N1CCOCC1 [Example 17, (S)-2-Amino-4-[(morpholine-4-carboximidoyl)-amino]butanoic acid]
34	–	NC(=NCc1cccs1)NCC[C@H](N)C(=O)O [(S)-2-Amino-4-(N′-(2-thiophenemethyl)guanidino)butanoic acid]
–	65	NC(=NC1CC1)NCC[C@H](N)C(=O)O [Example 8, (S)-2-Amino-4-(N′-cyclopropylguanidino)butanoic acid]
–	38	NC(=NCCOc1ccccc1)NCC[C@H](N)C(=O)O [Example 11, (S)-2-Amino-4-(N′-(2-phenoxyethyl)guanidino)butanoic acid]
–	19	CSCCN=C(N)NCC[C@H](N)C(=O)O [Example 12, (S)-2-Amino-4-(N′-(2-methylthioethyl)guanidino)butanoic acid]
25	–	CN(C)CCN=C(N)NCC[C@H](N)C(=O)O [Example 9, (S)-2-Amino-4-(N′-(2′-dimethylaminoethyl)guanidino)butanoic acid]
–	90	COCCN=C(N)NCC[C@H](N)C(=O)O [Example 6, (S)-2-Amino-4-(N′-(2-methoxyethyl)guanidino)butanoic acid]
–	41	CCCN=C(N)NCC[C@H](N)C(=O)O [Example 2, (S)-2-Amino-4-(N′-propylguanidino)butanoic acid]
–	79	N=C(NCC[C@H](N)C(=O)O)N1CCCC1 [Example 16, (S)-2-Amino-4-[(pyrrolidine-1-carboximidoyl)-amino]butanoic acid]
–	22	NC(=NCc1ccccc1)NCC[C@H](N)C(=O)O [Example 3, (S)-2-Amino-4-(N′-benzylguanidino)butanoic acid]
–	65	NC(=Nc1ccccc1)NCC[C@H](N)C(=O)O [Example 5, (S)-2-Amino-4-(N′-phenylguanidino)butanoic acid]
–	51	NC(=NC1CCCCC1)NCC[C@H](N)C(=O)O [Example 4, (S)-2-Amino-4-(N′-cyclohexylguanidino)butanoic acid]

Continued, compound first:

Structure (SMILES)	Inhibition at 1 mM, % [%]	inhibition at 1000 µM [%]
CC(C)(C)CN=C(N)NCC[C@H](N)C(=O)O [Example 10]	19	–
N=C(NCC[C@H](N)C(=O)O)N1CCCCC1 [Example 15, (S)-2-Amino-4-[(piperidine-1-carboximidoyl)-amino]butanoic acid]	–	74
CC(C)OCCN=C(N)NCC[C@H](N)C(=O)O [Example 13, (S)-2-Amino-4-(N′-(2-isopropoxyethyl)guanidino)butanoic acid]	–	97
CCOC(=O)[C@@H](N)CCNC(N)=NCCOC [Example 23, (S)-2-Amino-4-(N′-(2-methoxyethyl)guanidino)butanoic acid ethyl ester]	–	44
CC(C)N=C(N)NCC[C@H](N)C(=O)O [Example 1, (S)-2-Amino-4-(N′-isopropylguanidino)butanoic acid]	–	38
CCCCCCCCN=C(N)NCC[C@H](N)C(=O)O [Example 7, (S)-2-Amino-4-(N′-octylguanidino)butanoic acid]	–	27
C=CCN=C(N)NCC[C@H](N)C(=O)O [Example 14, (S)-2-Amino-4-(N′-allylguanidino)butanoic acid]	–	70

Reference: patent US8063104B2, “Guanidine derivatives as inhibitors of DDAH” (UCL Business PLC, priority 2004, dated 2011)
